{"source": "patent US12529029B2", "about": "“Cell culture medium comprising small peptides” (LIFE TECHNOLOGIES CORPORATION, priority 2010, dated 2026)", "key": {"physchem": {"assay": "physchem", "assay_type": "physicochemical", "protocol": "An exemplary cell culture medium containing the dipeptides alanyl tyrosine (AlaTyr) and alanyl cysteine (which forms a disulfide dimer, [AlaCys]2) was prepared. Specifically, the dipeptides, alanyl tyrosine and alanyl cysteine were added as dry powder to an aqueous basal cell culture medium containing glucose and a mixture of concentrated amino acids and mixed until dissolved. […]."}, "[1]": {"settings": "25° C., by way of comparison; cited from earlier work"}}, "note": "Where a SMILES comes first, the peptide text is derived from it. Bridges are numbered along the chain shown (N, C = ends). Roman numbers before positions name the chains, in order.", "data": [{"smiles": "C[C@H](N)C(=O)N[C@@H](Cc1ccc(O)cc1)C(=O)O", "note": "[AlaTyr, alanyl tyrosine] (H-Ala-Tyr-OH)", "values": [{"measurement": "solubility", "setting": "physchem", "result": "~15.4", "unit": "mg/mL"}]}, {"smiles": "N[C@@H](CSSC[C@H](N)C(=O)O)C(=O)O", "note": "[L-Cystine]", "values": [{"measurement": "solubility in water", "setting": "[1]", "result": "about 0.11 g/L"}]}, {"smiles": "C[C@H](N)C(=O)N[C@@H](CSSC[C@H](NC(=O)[C@H](C)N)C(=O)O)C(=O)O", "note": "[[AlaCys]2 dimer, N,N′-di-L-Alanyl-L-Cystine] (I: H-Ala-Cys-OH / II: H-Ala-Cys-OH; disulfide I:2-II:2)", "values": [{"measurement": "solubility", "setting": "physchem", "result": "~8.7", "unit": "mg/mL"}]}]}
